Measured values: patent publication US20110143948A1, “MOLECULAR SIGNATURES AND BIOMARKERS ASSOCIATED WITH MELANOMA AND METHODS OF USE THEREOF” (priority 2008, published 2011)

System: FGF2
Experiment: beta gal target cleavage assay, FGF2
Format: cell-based, human
Settings: pcDNA6/LacZ/FGF2; data not shown
Description: Target cleavage assays using the miRNA targets from the bioinformatics analyses above were conducted. The 3′ UTR seed sequences of putative target genes were amplified by PCR (Phusion PCR kit, Finnzymes) from human Melanocyte genomic DNA (Primers: ARL2 For-ctcctccaccccagcctgc (SEQ ID NO 92), ARL2 Rev-[…] (SEQ ID NO 93); FGF2 For-[…] (SEQ ID NO 94), FGF2 Rev-[…] (SEQ ID NO 95); RAB22A For-[…] (SEQ ID NO 96), RAB22A Rev-[…] (SEQ ID NO 97); SLC37A3 For-[…] (SEQ ID NO 98), SLC37A3 Rev-[…] (SEQ ID NO 99); TCF12 For-[…] (SEQ ID NO 100), TCF12 Rev-[…] ((SEQ ID NO 101); all primer sets containing 5′ NotI and 3′ AgeI sites). PCR products were cloned into pCR4-TOPO (Invitrogen), confirmed by sequencing, then subcloned into the 3′ UTR of the LacZ gene in pcDNA6/V5-His/LacZ (Invitrogen) using the 5′ NotI and 3′ AgeI restriction sites, and reconfirmed by sequencing (pcDNA6/LacZ/ARL2, pcDNA6/LacZ/FGF2, pcDNA6/LacZ/RAB22A, pcDNA6/LacZ/SLC37A3, and pcDNA6/LacZ/TCF12, respectively). FIG. 11 is an example of the pcDNA6/LacZ construct used within these experiments. As shown, the FGF2 target sequence may be cloned into the 3′ UTR of the LacZ gene. […]

Substance: miR-16: miRIDIAN microRNA Mimic (Dharmacon) for miR-16, UAGCAGCACGUAAAUAUUGGCG (commercial miRIDIAN mimic, chemistry not given here; listed as Homo sapiens)
- targeting of FGF2 (target cleavage assay): confirmed
